Measurements published in patent US10836725B2, “Modulators of the integrated stress pathway” (Calico Life Sciences LLC, priority 2016, dated 2020).
pEC50: −log10 of the molar value.

What follows are compounds tested on ATF4 luciferase reporter (assay: ATF4-Luc assay in HEK293T cells carrying the ATF4 luciferase reporter (in vitro model of VWMD)). Conditions: 1 μg/mL tunicamycin, 7 hours, luminescence (One Glo).
Format: cell-based, human
In short: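 Compound at 200 nM and tunicamycin at 1 μg/mL were given together for 7 h to HEK293T cells stably transduced with an ATF4 5′-UTR-driven firefly luciferase reporter. Read-out by luminescence, reported as EC50.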
Compound `O=C(COc1ccc(Cl)c(F)c1)NC12CC(C(=O)NCCc3c[nH]c4ccccc34)(C1)C2` [Compound 194] has a pEC50 greater than 6.60.

Same assay, conditions: Homo sapiens, HEK-293T, 1 μg/mL tunicamycin, 7 hours, luminescence (One Glo)
`Cc1cccc([C@H](C)NC(=O)C23CC(NC(=O)COc4ccc(Cl)c(F)c4)(C2)C3)c1` [Compound 187, 3-[2-(4-chloro-3-fluorophenoxy)acetamido]-N-[(1S)-1-(3-methylphenyl)ethyl]bicyclo[1.1.1]pentane-1-carboxamide] showed a pEC50 of less than 5.70.
Compound `O=C(COc1ccc(Cl)c(F)c1)NC12CC(C(=O)NCCc3c[nH]cn3)(C1)C2` [Compound 188, 3-[2-(4-chloro-3-fluorophenoxy)acetamido]-N-[2-(1H-imidazol-4-yl)ethyl]bicyclo[1.1.1]pentane-1-carboxamide] has a pEC50 of less than 5.70.
For `Cc1cccc([C@@H](C)NC(=O)C23CC(NC(=O)COc4ccc(Cl)c(F)c4)(C2)C3)c1` [Compound 189, 3-[2-(4-chloro-3-fluorophenoxy)acetamido]-N-[(1R)-1-(3-methylphenyl)ethyl]bicyclo[1.1.1]pentane-1-carboxamide], the pEC50 was less than 5.70.
`Cc1ccc(C)c(CNC(=O)C23CC(NC(=O)COc4ccc(Cl)c(F)c4)(C2)C3)c1` [Compound 190, 3-[2-(4-chloro-3-fluorophenoxy)acetamido]-N-[(2,5-dimethylphenyl)methyl]bicyclo[1.1.1]pentane-1-carboxamide] gave a pEC50 of less than 5.70.
For `O=C(COc1ccc(Cl)c(F)c1)NC12CC(C(=O)NCc3cn4ccccc4n3)(C1)C2` [Compound 191, 3-[2-(4-chloro-3-fluorophenoxy)acetamido]-N-[(imidazo[1,2-a]pyridin-2-yl)methyl]bicyclo[1.1.1]pentane-1-carboxamide], the pEC50 was 5.70 to 6.00.
`Cc1ccsc1CNC(=O)C12CC(NC(=O)COc3ccc(Cl)c(F)c3)(C1)C2` [Compound 192, 3-[2-(4-chloro-3-fluorophenoxy)acetamido]-N-[(3-methylthiophen-2-yl)methyl]bicyclo[1.1.1]pentane-1-carboxamide] was tested, and the pEC50 was less than 5.70.
`O=C(COc1ccc(Cl)c(F)c1)NC12CC(C(=O)NCc3ccc(Cl)c(F)c3)(C1)C2` [Compound 193, 3-[2-(4-chloro-3-fluorophenoxy)acetamido]-N-[(4-chloro-3-fluorophenyl)methyl]bicyclo[1.1.1]pentane-1-carboxamide] was tested, and the pEC50 was 6.30 to 6.60.
Compound `COc1ccc(CNC(=O)C23CC(NC(=O)COc4ccc(Cl)c(F)c4)(C2)C3)cc1` [Compound 195, 3-[2-(4-chloro-3-fluorophenoxy)acetamido]-N-[(4-methoxyphenyl)methyl]bicyclo[1.1.1]pentane-1-carboxamide] has a pEC50 of less than 5.70.
In the case of `Cn1cnc(CNC(=O)C23CC(NC(=O)COc4ccc(Cl)c(F)c4)(C2)C3)c1` [Compound 196, 3-[2-(4-chloro-3-fluorophenoxy)acetamido]-N-[(1-methyl-1H-imidazol-4-yl)methyl]bicyclo[1.1.1]pentane-1-carboxamide], the pEC50 was less than 5.70.
`Cc1ccccc1CNC(=O)C12CC(NC(=O)COc3ccc(Cl)c(F)c3)(C1)C2` [Compound 197, 3-[2-(4-chloro-3-fluorophenoxy)acetamido]-N-[(2-methylphenyl)methyl]bicyclo[1.1.1]pentane-1-carboxamide] showed a pEC50 of 6.00 to 6.30.
In the case of `C[C@@H](NC(=O)C12CC(NC(=O)COc3ccc(Cl)c(F)c3)(C1)C2)c1ccc(Cl)cc1` [Compound 198, 3-[2-(4-chloro-3-fluorophenoxy)acetamido]-N-[(1R)-1-(4-chlorophenyl)ethyl]bicyclo[1.1.1]pentane-1-carboxamide], the pEC50 was less than 5.70.
For `NS(=O)(=O)c1ccc(CCNC(=O)C23CC(NC(=O)COc4ccc(Cl)c(F)c4)(C2)C3)cc1` [Compound 199, 3-[2-(4-chloro-3-fluorophenoxy)acetamido]-N-[2-(4-sulfamoylphenyl)ethyl]bicyclo[1.1.1]pentane-1-carboxamide], the pEC50 was less than 5.70.
With `COc1ncc(CNC(=O)C23CC(NC(=O)COc4ccc(Cl)c(F)c4)(C2)C3)cn1` [Compound 200, 3-[2-(4-chloro-3-fluorophenoxy)acetamido]-N-[(2-methoxypyrimidin-5-yl)methyl]bicyclo[1.1.1]pentane-1-carboxamide] the pEC50 was less than 5.70.
In the case of `O=C(COc1ccc(Cl)c(F)c1)NC12CC(C(=O)NCc3noc(-c4ccccc4)n3)(C1)C2` [Compound 201, 3-[2-(4-chloro-3-fluorophenoxy)acetamido]-N-[(5-phenyl-1,2,4-oxadiazol-3-yl)methyl]bicyclo[1.1.1]pentane-1-carboxamide], the pEC50 was 5.70 to 6.00.
`COc1ccc(CNC(=O)C23CC(NC(=O)COc4ccc(Cl)c(F)c4)(C2)C3)cc1OC` [Compound 202, 3-[2-(4-chloro-3-fluorophenoxy)acetamido]-N-[(3,4-dimethoxyphenyl)methyl]bicyclo[1.1.1]pentane-1-carboxamide] gave a pEC50 of less than 5.70.
With `O=C(COc1ccc(Cl)c(F)c1)NC12CC(C(=O)NCc3ccccc3OCC(F)F)(C1)C2` [Compound 203, 3-[2-(4-chloro-3-fluorophenoxy)acetamido]-N-{[2-(2,2-difluoroethoxy)phenyl]methyl}bicyclo[1.1.1]pentane-1-carboxamide] the pEC50 was less than 5.70.
With `O=C(COc1ccc(Cl)c(F)c1)NC12CC(C(=O)NCCCc3ccc(F)cc3)(C1)C2` [Compound 204, 3-[2-(4-chloro-3-fluorophenoxy)acetamido]-N-[3-(4-fluorophenyl)propyl]bicyclo[1.1.1]pentane-1-carboxamide] the pEC50 was greater than 6.60.
`O=C(COc1ccc(Cl)c(F)c1)NC12CC(C(=O)NCc3cccnn3)(C1)C2` [Compound 205, 3-[2-(4-chloro-3-fluorophenoxy)acetamido]-N-[(pyridazin-3-yl)methyl]bicyclo[1.1.1]pentane-1-carboxamide] gave a pEC50 of less than 5.70.
Work on `COc1c(F)cc(CNC(=O)C23CC(NC(=O)COc4ccc(Cl)c(F)c4)(C2)C3)cc1F` [Compound 206, 3-[2-(4-chloro-3-fluorophenoxy)acetamido]-N-[(3,5-difluoro-4-methoxyphenyl)methyl]bicyclo[1.1.1]pentane-1-carboxamide] yielded a pEC50 of less than 5.70.
`CC(C)Oc1ccc(CNC(=O)C23CC(NC(=O)COc4ccc(Cl)c(F)c4)(C2)C3)cc1` [Compound 207] gave a pEC50 of less than 5.70.
Compound `O=C(COc1ccc(Cl)c(F)c1)NC12CC(C(=O)NCc3nccs3)(C1)C2` [Compound 208, 3-[2-(4-chloro-3-fluorophenoxy)acetamido]-N-[(1,3-thiazol-2-yl)methyl]bicyclo[1.1.1]pentane-1-carboxamide] has a pEC50 of less than 5.70.
With `COc1cc(F)cc(CNC(=O)C23CC(NC(=O)COc4ccc(Cl)c(F)c4)(C2)C3)c1` [Compound 209, 3-[2-(4-chloro-3-fluorophenoxy)acetamido]-N-[(3-fluoro-5-methoxyphenyl)methyl]bicyclo[1.1.1]pentane-1-carboxamide] the pEC50 was less than 5.70.
For `O=C(COc1ccc(Cl)c(F)c1)NC12CC(C(=O)NCc3ccccc3F)(C1)C2` [Compound 210, 3-[2-(4-chloro-3-fluorophenoxy)acetamido]-N-[(2-fluorophenyl)methyl]bicyclo[1.1.1]pentane-1-carboxamide], the pEC50 was less than 5.70.
`Cc1cc(CCNC(=O)C23CC(NC(=O)COc4ccc(Cl)c(F)c4)(C2)C3)cc(C)n1` [Compound 211, 3-[2-(4-chloro-3-fluorophenoxy)acetamido]-N-[2-(2,6-dimethylpyridin-4-yl)ethyl]bicyclo[1.1.1]pentane-1-carboxamide] gave a pEC50 of 5.70 to 6.00.
`CC(C)Cc1cc(CNC(=O)C23CC(NC(=O)COc4ccc(Cl)c(F)c4)(C2)C3)on1` [Compound 212, 3-[2-(4-chloro-3-fluorophenoxy)acetamido]-N-{[3-(2-methylpropyl)-1,2-oxazol-5-yl]methyl}bicyclo[1.1.1]pentane-1-carboxamide] was tested, and the pEC50 was less than 5.70.
With `O=C(COc1ccc(Cl)c(F)c1)NC12CC(C(=O)NCCc3ccc(C(F)(F)F)cn3)(C1)C2` [Compound 213, 3-[2-(4-chloro-3-fluorophenoxy)acetamido]-N-{2-[5-(trifluoromethyl)pyridin-2-yl]ethyl}bicyclo[1.1.1]pentane-1-carboxamide] the pEC50 was less than 5.70.
With `Cc1cccc(-c2nc(CNC(=O)C34CC(NC(=O)COc5ccc(Cl)c(F)c5)(C3)C4)cs2)c1` [Compound 214, 3-[2-(4-chloro-3-fluorophenoxy)acetamido]-N-{[2-(3-methylphenyl)-1,3-thiazol-4-yl]methyl}bicyclo[1.1.1]pentane-1-carboxamide] the pEC50 was less than 5.70.
Compound `O=C(COc1ccc(Cl)c(F)c1)NC12CC(C(=O)NCc3ccc(C(F)(F)F)o3)(C1)C2` [Compound 215, 3-[2-(4-chloro-3-fluorophenoxy)acetamido]-N-{[5-(trifluoromethyl)furan-2-yl]methyl}bicyclo[1.1.1]pentane-1-carboxamide] has a pEC50 of less than 5.70.
With `COc1cccc(CNC(=O)C23CC(NC(=O)COc4ccc(Cl)c(F)c4)(C2)C3)c1` [Compound 216, 3-[2-(4-chloro-3-fluorophenoxy)acetamido]-N-[(3-methoxyphenyl)methyl]bicyclo[1.1.1]pentane-1-carboxamide] the pEC50 was less than 5.70.
For `CCc1nccc(CNC(=O)C23CC(NC(=O)COc4ccc(Cl)c(F)c4)(C2)C3)n1` [Compound 217, 3-[2-(4-chloro-3-fluorophenoxy)acetamido]-N-[(2-ethylpyrimidin-4-yl)methyl]bicyclo[1.1.1]pentane-1-carboxamide], the pEC50 was less than 5.70.
`O=C(COc1ccc(Cl)c(F)c1)NC12CC(C(=O)NCc3cccc(Cl)c3)(C1)C2` [Compound 219, 3-[2-(4-chloro-3-fluorophenoxy)acetamido]-N-[(3-chlorophenyl)methyl]bicyclo[1.1.1]pentane-1-carboxamide] was tested, and the pEC50 was less than 5.70.
In the case of `Cc1noc(C)c1CCCNC(=O)C12CC(NC(=O)COc3ccc(Cl)c(F)c3)(C1)C2` [Compound 220, 3-[2-(4-chloro-3-fluorophenoxy)acetamido]-N-[3-(3,5-dimethyl-1,2-oxazol-4-yl)propyl]bicyclo[1.1.1]pentane-1-carboxamide], the pEC50 was less than 5.70.
Compound `Cc1ccnc(CNC(=O)C23CC(NC(=O)COc4ccc(Cl)c(F)c4)(C2)C3)c1` [Compound 221, 3-[2-(4-chloro-3-fluorophenoxy)acetamido]-N-[(4-methylpyridin-2-yl)methyl]bicyclo[1.1.1]pentane-1-carboxamide] has a pEC50 of less than 5.70.
